For this experiment, the target named is T1, IRAK4 (Homo sapiens, UniProt Q9NWZ3).
T1 construct: endogenous in cells; host or cells: Karpas299
T1 sequence (Q9NWZ3 1-460): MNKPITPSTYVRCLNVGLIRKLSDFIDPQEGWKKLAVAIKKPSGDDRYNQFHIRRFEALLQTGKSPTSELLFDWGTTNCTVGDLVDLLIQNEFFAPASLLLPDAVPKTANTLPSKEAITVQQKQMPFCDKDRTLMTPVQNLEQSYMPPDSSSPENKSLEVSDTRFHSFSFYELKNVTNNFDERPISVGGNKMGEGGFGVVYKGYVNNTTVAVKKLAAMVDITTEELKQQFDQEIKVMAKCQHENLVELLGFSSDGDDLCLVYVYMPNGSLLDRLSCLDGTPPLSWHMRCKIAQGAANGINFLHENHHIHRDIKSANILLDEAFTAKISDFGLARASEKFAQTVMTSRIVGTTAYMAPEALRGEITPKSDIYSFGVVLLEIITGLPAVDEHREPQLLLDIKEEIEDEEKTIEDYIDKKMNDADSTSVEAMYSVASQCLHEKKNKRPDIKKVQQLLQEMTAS
The experiment can be described thus: IRAK4 Degradation Assay (Karpas299, HTRF/TR-FRET). The class given is cell-based. The procedure: IRAK4 degradation was measured using a TR-FRET-based method (Degorce, François, et al. Current chemical genomics. 2009, 3: 22). Karpas299 maintained in RPMI 1640 medium (Thermo Scientific) supplemented with 20% fetal bovine serum (FBS, Thermo Scientific), 100 units/mL penicillin and 0.1 mg/mL streptomycin (Thermo Scientific) were seeded into 96-well plates at the density of 0.2 million cells per well and then treated with a series dilution of compounds. After 24 hours or 5 hours treatment, cells were pelleted via centrifugation and 40 μL lysis buffer (Cisbio) was added to each well after removal of the supernatant. Plates were then incubated at room temperature with shaking for 30 minutes. A total of 16 μL of cell lysates from each well of a 96-well plate was transferred to a 384-well white assay plate. IRAK4 level was quantitated using the HTRF kit as described by the manufacturer manual (Cisbio). FRET signals were measured using a PHERAstar FSX reader (BMG Labtech).
After treatment, add HTRF lysis buffer to each well; seal the plate and incubate 1 hour at room temperature on a plate shaker; Once the cells are lysed, 16 μL of cell lysate are transferred to a PE 384-well HTRF detection plate; 4 μL of pre-mixed HTRF antibodies are added to each well; Cover the plate with a plate sealer, spin 1000 rpm for 1 min, Incubate overnight at room temperature; Read on BMG PheraStar with HTRF protocol (337 nm-665 nm-620 nm).
The inhibition (degradation) percentage of the compound was calculated by the following equation: […]
The IC50 (DC50) value of a compound can be obtained by fitting the following equation
Wherein, X and Y are known values, and IC50, Hillslope, Top and Bottom are the parameters obtained by fitting with software. Y is the inhibition percentage (calculated from the equation), X is the concentration of the compound; IC50 is the concentration of the compound when the […] is reached. The smaller the IC50 value is, the stronger the inhibitory ability of the compound is. Vice versa, the higher the IC50 value is, the weaker the ability the inhibitory ability of the compound is; Hillslope represents the slope of the fitted curve, generally around 1 *; Bottom represents the minimum value of the curve obtained by data fitting, which is generally 0%±20%; Top represents the maximum value of the curve obtained by data fitting, which is generally 100%±20%. The experimental data were fitted by calculating and analyzing with Dotmatics data analysis software.

Where [1] appears, read: Karpas-299 cells, 24 h treatment, maximum percentage of degradation, read-out: IRAK4 in Karpas-299 (24 h) Dmax (%).
The mark [2] stands for this setting: Karpas-299 cells, 24 h treatment, read-out: IRAK4 in Karpas-299 (24 h) DC50.
Setting [3] is: Degradation (Karpas-299), comparison table, Linker Type A, read-out: Compound (Linker Type A) DC50.
The mark [4] stands for this setting: Degradation (Karpas-299), comparison table, Linker Type A, read-out: Compound (Linker Type A) Dmax (%).

Read-outs that look alike come from different tables or passages of the source.

As for `O=C1CC[C@H](c2c(F)cc(N3CC(CN4CCN([C@H]5CC[C@H](n6cc(NC(=O)c7csc(-c8cn[nH]c8)n7)c(C(F)F)n6)CC5)CC4)C3)cc2F)C(=O)N1` [Example 435, N-(3-(difluoromethyl)-1-((1r,4r)-4-(4-((1-(4-((R)-2,6-dioxopiperidin-3-yl)-3,5-difluorophenyl)azetidin-3-yl)methyl)piperazin-1-yl)cyclohexyl)-1H-pyrazol-4-yl)-2-(1H-pyrazol-4-yl)thiazole-4-carboxamide], under setting [1], the Dmax came to 100%. In addition, the DC50 under setting [2] was found to be 0.4 nM.

In the case of `COc1cc2nn([C@H]3CC[C@H](CN4CCN(C(=O)[C@H]5CC[C@H](Oc6ccc(N7CCC(=O)NC7=O)cc6)CC5)CC4)CC3)cc2cc1NC(=O)c1cccc(C(F)(F)F)n1` [Example 6, N-(2-((1R,4r)-4-((4-((1r,4R)-4-(4-(2,4-dioxotetrahydropyrimidin-1(2H)-yl)phenoxy)cyclohexane-1-carbonyl)piperazin-1-yl)methyl)cyclohexyl)-6-methoxy-2H-indazol-5-yl)-6-(trifluoromethyl)picolinamide], the DC50 runs as follows: under setting [3], > 10000 nM; under setting [2], > 10000 nM. Further, the Dmax reads like this: under setting [4], 11%; under setting [1], 11%.

As to `CC(C)c1cc(-c2nc(C(=O)Nc3cn([C@H]4CC[C@H](N5CCN(C(=O)[C@@H]6CCN(c7cc(F)c([C@H]8CCC(=O)NC8=O)c(F)c7)C6)CC5)CC4)nc3C(F)F)co2)ccn1` [Example 85, N-(3-(difluoromethyl)-1-((1R,4r)-4-(4-((R)-1-(4-((R)-2,6-dioxopiperidin-3-yl)-3,5-difluorophenyl)pyrrolidine-3-carbonyl)piperazin-1-yl)cyclohexyl)-1H-pyrazol-4-yl)-2-(2-isopropylpyridin-4-yl)oxazole-4-carboxamide], the Dmax under setting [1] came to 95%. The DC50 under setting [2] came to 5.2 nM.

On to `CC(C)(O)c1cc2nn(C3CCN([C@H]4CCN(CC5CN(c6cc(F)c([C@H]7CCC(=O)NC7=O)c(F)c6)C5)CC4(F)F)CC3)cc2cc1NC(=O)c1ccc2cc(C#N)cnn12` [Example 197, 3-cyano-N-(2-((S)-1′-((1-(4-((R)-2,6-dioxopiperidin-3-yl)-3,5-difluorophenyl)azetidin-3-yl)methyl)-3′,3′-difluoro-[1,4′-bipiperidin]-4-yl)-6-(2-hydroxypropan-2-yl)-2H-indazol-5-yl)pyrrolo[1,2-b]pyridazine-7-carboxamide], for which, under setting [1], the Dmax turned out to be 96%. Moreover, the 50% degradation concentration (DC50) under setting [2] came out at 4.8 nM.

For `CC(C)(O)c1cc2nn([C@H]3CC[C@H](N4CCN(CC(=O)N[C@@H](Cc5ccccc5)C(=O)NC5CCC(=O)NC5=O)CC4)CC3)cc2cc1NC(=O)c1ccc2cc(C#N)cnn12` (stereo partly drawn) [Example 439, 3-cyano-N-(2-((1S,4r)-4-(4-(2-(((2S)-1-((2,6-dioxopiperidin-3-yl)amino)-1-oxo-3-phenylpropan-2-yl)amino)-2-oxoethyl)piperazin-1-yl)cyclohexyl)-6-(2-hydroxypropan-2-yl)-2H-indazol-5-yl)pyrrolo[1,2-b]pyridazine-7-carboxamide], the Dmax under setting [1] is 58%. Further, under setting [2], the DC50 turned out to be 252 nM.

Take `N#Cc1cnn2c(C(=O)Nc3cc4cn([C@H]5CC[C@H](N6CCN(CCc7cc(F)c([C@H]8CCC(=O)NC8=O)c(F)c7)CC6)CC5)nc4c4c3OC(F)(F)O4)ccc2c1` [Example 386, 3-cyano-N-(2-((1R,4r)-4-(4-(4-((R)-2,6-dioxopiperidin-3-yl)-3,5-difluorophenethyl)piperazin-1-yl)cyclohexyl)-7,7-difluoro-2H-[1,3]dioxolo[4,5-g]indazol-5-yl)pyrrolo[1,2-b]pyridazine-7-carboxamide]: the Dmax under setting [1] amounted to 94%. The DC50 under setting [2] was determined as 3.2 nM.

Take `COc1cc2nn([C@H]3CC[C@H](N4CCN(CCc5cc(F)c([C@H]6CCC(=O)NC6=O)c(F)c5)CC4)CC3)cc2cc1NC(=O)c1cccc(C(F)(F)F)n1` [Example 120, N-(2-((1R,4r)-4-(4-(4-((R)-2,6-dioxopiperidin-3-yl)-3,5-difluorophenethyl)piperazin-1-yl)cyclohexyl)-6-methoxy-2H-indazol-5-yl)-6-(trifluoromethyl)picolinamide]: the Dmax under setting [1] was determined as 99%. Also, the DC50 under setting [2] stood at 4.2 nM.

For `[2H]C([2H])([2H])Oc1cc2nn([C@H]3CC[C@H](N4CCN(C(=O)[C@@H]5CCN(c6cc(F)c(N7CCC(=O)NC7=O)c(F)c6)C5)CC4)CC3)cc2cc1NC(=O)c1cccc(C(F)(F)F)n1` [Example 174, N-(2-((1R,4r)-4-(4-((R)-1-(4-(2,4-dioxotetrahydropyrimidin-1(2H)-yl)-3,5-difluorophenyl)pyrrolidine-3-carbonyl)piperazin-1-yl)cyclohexyl)-6-(methoxy-d3)-2H-indazol-5-yl)-6-(trifluoromethyl)picolinamide], the maximal degradation (Dmax) under setting [1] is 97%. Besides, the DC50 under setting [2] was 7.7 nM.

Take `O=C1CCN(c2ccc(N3CC(N4CCN(C[C@H]5CC[C@H](n6cc(NC(=O)c7coc(-c8ccnc(NCC(F)(F)F)c8)n7)c(C(F)F)n6)CC5)CC4)C3)cc2)C(=O)N1` [Example 3, N-(3-(difluoromethyl)-1-((1r,4r)-4-((4-(1-(4-(2,4-dioxotetrahydropyrimidin-1(2H)-yl)phenyl)azetidin-3-yl)piperazin-1-yl)methyl)cyclohexyl)-1H-pyrazol-4-yl)-2-(2-((2,2,2-trifluoroethyl)amino)pyridin-4-yl)oxazole-4-carboxamide]: the DC50 is, setting by setting: under setting [3], > 10000 nM; under setting [2], > 10000 nM. For the same compound, the Dmax was determined as 9% under setting [4] and 9% under setting [1].

Regarding `[2H]C([2H])([2H])Oc1cc2nn([C@H]3CC[C@H](N4CCN(C(=O)[C@@H]5CCN(c6cc(F)c([C@H]7CCC(=O)NC7=O)c(F)c6)C5)CC4)CC3)cc2cc1NC(=O)c1cccc(C(F)(F)F)n1` [Example 169, N-(2-((1R,4r)-4-(4-((R)-1-(4-((R)-2,6-dioxopiperidin-3-yl)-3,5-difluorophenyl)pyrrolidine-3-carbonyl)piperazin-1-yl)cyclohexyl)-6-(methoxy-d3)-2H-indazol-5-yl)-6-(trifluoromethyl)picolinamide], the Dmax by setting is: (Karpas-299 cells, 5 h treatment, maximum percentage of degradation, read-out: IRAK4 in Karpas-299 (5 h) Dmax (%)) 95%; under setting [1], 99%. Further, the DC50 reads like this: (Karpas-299 cells, 5 h treatment, read-out: IRAK4 in Karpas-299 (5 h) DC50) 17 nM; under setting [2], 4.3 nM.

On to `O=C1CCN(c2c(F)cc(N3CC[C@H](C(=O)N4CCN([C@H]5CC[C@H](n6cc(NC(=O)c7cnn(-c8ccnc(NCC9CC9)c8)n7)c(C(F)F)n6)CC5)CC4)C3)cc2F)C(=O)N1` [Example 63, 2-(2-((cyclopropylmethyl)amino)pyridin-4-yl)-N-(3-(difluoromethyl)-1-((1S,4r)-4-(4-((S)-1-(4-(2,4-dioxotetrahydropyrimidin-1(2H)-yl)-3,5-difluorophenyl)pyrrolidine-3-carbonyl)piperazin-1-yl)cyclohexyl)-1H-pyrazol-4-yl)-2H-1,2,3-triazole-4-carboxamide], for which the Dmax under setting [1] was determined as 95%. In addition, the DC50 under setting [2] was found to be 15 nM.

As to `COc1cc2nn(C3CCN(C(=O)[C@H]4CC[C@H](Oc5ccc(C6CCC(=O)NC6=O)cc5)CC4)CC3)cc2cc1NC(=O)c1cccc(C(F)(F)F)n1` (some centres unmarked) [Example 35, N-(2-(1-((1r,4r)-4-(4-(2,6-dioxopiperidin-3-yl)phenoxy)cyclohexane-1-carbonyl)piperidin-4-yl)-6-methoxy-2H-indazol-5-yl)-6-(trifluoromethyl)picolinamide], the DC50 by setting is: under setting [3], > 10000 nM; under setting [2], > 10000 nM. Further, the Dmax under setting [4] was 10% and the greatest degradation seen (Dmax) under setting [1] stood at 10%.

(Values after US20250195513A1, “DEGRADATION OF IRAK4 BY CONJUGATION OF IRAK4 INHIBITORS WITH E3 LIGASE LIGAND AND METHODS OF USE” (BeiGene, Ltd., priority 2022, published 2025).)
